According to US20090036498A1, “FLY CONTROL METHOD” (priority 2007, published 2009):

Key:
[1] = system: Newly emerged larvae of blowfly, Lucilica sericata; test: Blowfly larvae on filter paper discs with test compound mixed in dried blood bovine serum, mortality; format: in vivo; details: Lucilia sericata, assessed at 24 hours, four replicates per data point
Method: L. serricata (Insect; Blowfly) Larvae.
Test compound (3-bromo-1-(3-chloro-2-pyridinyl)-N-[4-cyano-2-methyl-6-[(methylamino)-carbonyl]phenyl]-1H-pyrazole-5-carboxamide) was mixed with dried blood bovine serum and placed on filter paper discs. Newly emerged larvae of blowfly, Lucilica sericata were added to the filter paper, which were ingested by larvae. Activity may occur through both feeding and contact. Four replicates were run per data point. Activity was assessed at 24 hours.

[2] = system: Adult L. serricata (blowflies); test: Test A: adult blowflies on blood agar containing test compound, number of dead flies scored; format: in vivo, Lucilia sericata; details: 4 flies in test; for Number dead flies at 2 hours: scored at 2 hours; for Number dead flies at 4 hours: scored at 4 hours; for Number dead flies at 24 hours: scored at 24 hours
Method: Adult L. serricata (blowflies): Adult flies are placed on beds of blood agar (in individual test wells; 4 flies per well) in which test compound (3-bromo-1-(3-chloro-2-pyridinyl)-N-[4-cyano-2-methyl-6-[(methylamino)carbonyl]phenyl]-1H-pyrazole-5-carboxamide) was dissolved/suspended prior to hardening of agar. Flies can take up test compound by both ingestion and contact. Assays are scored by number of dead flies at 2 hours, 4 hours, and 24 hours.

Row | Compound | mortality at 0.5 ppm [1] [%] | Number dead flies at 2 hours ([2]; Rate 1 ppm in blood agar) | Number dead flies at 4 hours ([2]; Rate 1 ppm in blood agar) | Number dead flies at 24 hours ([2]; Rate 1 ppm in blood agar) | Number dead flies at 2 hours ([2]; Rate 10 ppm in blood agar) | Number dead flies at 4 hours ([2]; Rate 10 ppm in blood agar) | Number dead flies at 24 hours ([2]; Rate 10 ppm in blood agar) | Number dead flies at 2 hours ([2]; Rate 25 ppm in blood agar) | Number dead flies at 4 hours ([2]; Rate 25 ppm in blood agar) | Number dead flies at 24 hours ([2]; Rate 25 ppm in blood agar) | Number dead flies at 2 hours ([2]; Rate 50 ppm in blood agar) | Number dead flies at 4 hours ([2]; Rate 50 ppm in blood agar) | Number dead flies at 24 hours ([2]; Rate 50 ppm in blood agar) | Number dead flies at 2 hours ([2]; Rate 100 ppm in blood agar) | Number dead flies at 4 hours ([2]; Rate 100 ppm in blood agar) | Number dead flies at 24 hours ([2]; Rate 100 ppm in blood agar)
1 | N#Cc1nn(-c2c(Cl)cc(C(F)(F)F)cc2Cl)c(N)c1[S+]([O-])C(F)(F)F (stereo not drawn) [Fipronil, (.+−.)-5-amino-1-(2,6-dichloro-α,α,α-triflu-oro-p-tolyl)-4-trifluoromethyl-sulphinylpyrazol-3-carbonitrile, reference compound] | 90 to 100 |  |  |  |  |  |  |  |  |  |  |  |  |  |  | 
2 | CNC(=O)c1cc(C#N)cc(C)c1NC(=O)c1cc(Br)nn1-c1ncccc1Cl [Test compound, 3-bromo-1-(3-chloro-2-pyridinyl)-N-[4-cyano-2-methyl-6-[(methylamino)-carbonyl]phenyl]-1H-pyrazole-5-carboxamide] | 90 to 100 | 0 | 0 | 0 | 0 | 0 | 1 | 0 | 0 | 2 | 0 | 0 | 3 | 0 | 0 | 3
3 | CCOP(=S)(OCC)Oc1nc(Cl)c(Cl)cc1Cl [Chloropyriphos] |  | 0 | 1 | 4 | 1 | 4 | 4 | 3 | 4 | 4 | 4 | 4 | 4 | 4 | 4 | 4
